Data from the supplement of paper PMC10307832.

Experiments:
Assay in all cases: relative viability (nuclei count vs DMSO), 5 days (fraction); higher = more cells survive
BEN = test system: BEN
In short: (§1)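 One day after seeding in 1536-well plates, lung cancer cell lines were dosed by pin tool. Dosing was either single-drug or a fixed anchor-drug dose plus five library-drug doses (not always all listed) in √10 steps. After 5 days, nuclei were stained in one fix-and-stain step and counted on 4× images, and relative viability is the nuclei count of treated wells over that of vehicle wells, given as the median of duplicate plates.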

EMC-BAC-2 = test system: EMC-BAC-2
In short: as §1

H3255 = test system: H3255
In short: as §1

HOP-62 = test system: HOP-62
In short: as §1

LCLC-97TM1 = test system: LCLC-97TM1
In short: as §1

LXF-289 = test system: LXF-289
In short: as §1

NCI-H1563 = test system: NCI-H1563
In short: as §1

NCI-H1650 = test system: NCI-H1650
In short: as §1

NCI-H1915 = test system: NCI-H1915
In short: as §1

NCI-H1993 = test system: NCI-H1993
In short: as §1

NCI-H2009 = test system: NCI-H2009
In short: as §1

NCI-H2023 = test system: NCI-H2023
In short: as §1

NCI-H2085 = test system: NCI-H2085
In short: as §1

NCI-H2126 = test system: NCI-H2126
In short: as §1

NCI-H2347 = test system: NCI-H2347
In short: as §1

NCI-H322M = test system: NCI-H322M
In short: as §1

NCI-H358 = test system: NCI-H358
In short: as §1

NCI-H647 = test system: NCI-H647
In short: as §1

NCI-H661 = test system: NCI-H661
In short: as §1

NCI-H727 = test system: NCI-H727
In short: as §1

PC-14 = test system: PC-14
In short: as §1

SK-LU-1 = test system: SK-LU-1
In short: as §1

SW 1573 = test system: SW 1573
In short: as §1

What does the source list for `Clc1ccc(Nc2nnc(Cc3ccncc3)c3ccccc23)cc1` [Vatalanib] + CS(=O)(=O)CCNCc1ccc(-c2ccc3ncnc(Nc4ccc(OCc5cccc(F)c5)c(Cl)c4)c3c2)o1 [Lapatinib] (partner 2 µM)?
relative viability (BEN; first compound 0.04 µM): 0.79; relative viability (BEN; first compound 0.1265 µM): 0.554; relative viability (BEN; first compound 0.4 µM): 0.806; relative viability (BEN; first compound 1.265 µM): 0.657; relative viability (BEN; first compound 4 µM): 0.767; relative viability (EMC-BAC-2; first compound 0.04 µM): 0.905; relative viability (EMC-BAC-2; first compound 0.1265 µM): 0.884; relative viability (EMC-BAC-2; first compound 0.4 µM): 0.919; relative viability (EMC-BAC-2; first compound 1.265 µM): 0.832; relative viability (EMC-BAC-2; first compound 4 µM): 0.885; relative viability (H3255; first compound 0.04 µM): 0.261; relative viability (H3255; first compound 0.1265 µM): 0.226; relative viability (H3255; first compound 0.4 µM): 0.287; relative viability (H3255; first compound 1.265 µM): 0.247; relative viability (H3255; first compound 4 µM): 0.263; relative viability (HOP-62; first compound 0.04 µM): 1.13; relative viability (HOP-62; first compound 0.4 µM): 1.06; relative viability (HOP-62; first compound 1.265 µM): 0.827; relative viability (HOP-62; first compound 4 µM): 0.989; relative viability (LCLC-97TM1; first compound 0.04 µM): 0.818; relative viability (LCLC-97TM1; first compound 0.1265 µM): 0.847; relative viability (LCLC-97TM1; first compound 0.4 µM): 0.841; relative viability (LCLC-97TM1; first compound 1.265 µM): 0.897; relative viability (LCLC-97TM1; first compound 4 µM): 0.971; relative viability (LXF-289; first compound 0.04 µM): 0.959; relative viability (LXF-289; first compound 0.1265 µM): 0.82; relative viability (LXF-289; first compound 0.4 µM): 0.98; relative viability (LXF-289; first compound 1.265 µM): 0.891; relative viability (LXF-289; first compound 4 µM): 0.904; relative viability (NCI-H1563; first compound 0.04 µM): 0.994; relative viability (NCI-H1563; first compound 0.1265 µM): 0.91; relative viability (NCI-H1563; first compound 0.4 µM): 1.12; relative viability (NCI-H1563; first compound 1.265 µM): 0.945; relative viability (NCI-H1563; first compound 4 µM): 0.777; relative viability (NCI-H1650; first compound 0.04 µM): 0.799; relative viability (NCI-H1650; first compound 0.1265 µM): 0.644; relative viability (NCI-H1650; first compound 0.4 µM): 0.959; relative viability (NCI-H1650; first compound 1.265 µM): 0.752; relative viability (NCI-H1650; first compound 4 µM): 0.63; relative viability (NCI-H1915; first compound 0.04 µM): 0.974; relative viability (NCI-H1915; first compound 0.1265 µM): 0.88; relative viability (NCI-H1915; first compound 0.4 µM): 0.839; relative viability (NCI-H1915; first compound 1.265 µM): 0.93; relative viability (NCI-H1915; first compound 4 µM): 1.01; relative viability (NCI-H1993; first compound 0.04 µM): 0.909; relative viability (NCI-H1993; first compound 0.1265 µM): 0.721; relative viability (NCI-H1993; first compound 0.4 µM): 0.828; relative viability (NCI-H1993; first compound 1.265 µM): 0.755; relative viability (NCI-H1993; first compound 4 µM): 0.747; relative viability (NCI-H2009; first compound 0.04 µM): 1.03; relative viability (NCI-H2009; first compound 0.1265 µM): 0.868; relative viability (NCI-H2009; first compound 0.4 µM): 1.1; relative viability (NCI-H2009; first compound 1.265 µM): 0.894; relative viability (NCI-H2009; first compound 4 µM): 0.919; relative viability (NCI-H2023; first compound 0.04 µM): 0.749; relative viability (NCI-H2023; first compound 0.1265 µM): 0.725; relative viability (NCI-H2023; first compound 0.4 µM): 1.05; relative viability (NCI-H2023; first compound 1.265 µM): 0.681; relative viability (NCI-H2023; first compound 4 µM): 0.736; relative viability (NCI-H2085; first compound 0.04 µM): 0.818; relative viability (NCI-H2085; first compound 0.1265 µM): 0.736; relative viability (NCI-H2085; first compound 0.4 µM): 0.891; relative viability (NCI-H2085; first compound 1.265 µM): 0.701; relative viability (NCI-H2085; first compound 4 µM): 0.723; relative viability (NCI-H2126; first compound 0.04 µM): 0.787; relative viability (NCI-H2126; first compound 0.1265 µM): 0.823; relative viability (NCI-H2126; first compound 0.4 µM): 0.773; relative viability (NCI-H2126; first compound 1.265 µM): 0.744; relative viability (NCI-H2126; first compound 4 µM): 0.71; relative viability (NCI-H2347; first compound 0.04 µM): 1.01; relative viability (NCI-H2347; first compound 0.1265 µM): 0.858; relative viability (NCI-H2347; first compound 0.4 µM): 0.931; relative viability (NCI-H2347; first compound 1.265 µM): 0.907; relative viability (NCI-H2347; first compound 4 µM): 0.833; relative viability (NCI-H322M; first compound 0.04 µM): 0.493; relative viability (NCI-H322M; first compound 0.1265 µM): 0.637; relative viability (NCI-H322M; first compound 0.4 µM): 0.509; relative viability (NCI-H322M; first compound 1.265 µM): 0.561; relative viability (NCI-H322M; first compound 4 µM): 0.535; relative viability (NCI-H358; first compound 0.04 µM): 0.498; relative viability (NCI-H358; first compound 0.1265 µM): 0.429; relative viability (NCI-H358; first compound 0.4 µM): 0.564; relative viability (NCI-H358; first compound 1.265 µM): 0.355; relative viability (NCI-H358; first compound 4 µM): 0.457; relative viability (NCI-H647; first compound 0.04 µM): 1.12; relative viability (NCI-H647; first compound 0.1265 µM): 1.07; relative viability (NCI-H647; first compound 0.4 µM): 1.26; relative viability (NCI-H647; first compound 1.265 µM): 1.05; relative viability (NCI-H647; first compound 4 µM): 1.04; relative viability (NCI-H661; first compound 0.04 µM): 0.505; relative viability (NCI-H661; first compound 0.1265 µM): 0.384; relative viability (NCI-H661; first compound 0.4 µM): 0.518; relative viability (NCI-H661; first compound 1.265 µM): 0.524; relative viability (NCI-H661; first compound 4 µM): 0.496; relative viability (NCI-H727; first compound 0.04 µM): 0.806; relative viability (NCI-H727; first compound 0.1265 µM): 0.717; relative viability (NCI-H727; first compound 0.4 µM): 0.9; relative viability (NCI-H727; first compound 1.265 µM): 0.709; relative viability (NCI-H727; first compound 4 µM): 1.02; relative viability (PC-14; first compound 0.04 µM): 0.377; relative viability (PC-14; first compound 0.1265 µM): 0.306; relative viability (PC-14; first compound 0.4 µM): 0.334; relative viability (PC-14; first compound 1.265 µM): 0.315; relative viability (PC-14; first compound 4 µM): 0.288; relative viability (SK-LU-1; first compound 0.04 µM): 0.963; relative viability (SK-LU-1; first compound 0.1265 µM): 0.875; relative viability (SK-LU-1; first compound 0.4 µM): 1.21; relative viability (SK-LU-1; first compound 1.265 µM): 0.885; relative viability (SK-LU-1; first compound 4 µM): 0.848; relative viability (SW 1573; first compound 0.04 µM): 1.29; relative viability (SW 1573; first compound 0.1265 µM): 0.942; relative viability (SW 1573; first compound 0.4 µM): 1.23; relative viability (SW 1573; first compound 1.265 µM): 1.04; relative viability (SW 1573; first compound 4 µM): 1.05
